≈ marks a conversion by molar mass, not a printed value. Where “and” joins values, the source holds several entries; their conditions need not be identical. Equal entries are not always repeated.
Key:
[1] = tested on: Caenorhabditis elegans (N2 wild-type); test: whole plant or invertebrate; type: in vivo
[2] = tested on: Caenorhabditis elegans (N2 wild-type); settings: in vivo
[3] = tested on: Caenorhabditis elegans; settings: in vivo
[4] = tested on: Caenorhabditis elegans mutant strain Daf-16 (mu86); settings: in vivo
[5] = tested on: Caenorhabditis elegans mutant strain Daf-2 (e1370); settings: in vivo
[6] = tested on: Caenorhabditis elegans mutant strain Daf-16 (mu86); settings: in vivo; remark: listed apart in the source
[7] = tested on: Caenorhabditis elegans mutant strain Daf-2 (e1370); settings: in vivo; remark: listed apart in the source

`O=C1C=C2C(=CCOC2O)O1` (stereo not shown) [PAT, Patulin] was tested, and the EC50 ([1]; Caenorhabditis elegans, 24 h) was 44.2 µg/mL (≈ 287 µM), the body length ratio ([1]; in vivo) was 64.45% and 55.55% and the “concentration at which nematode's body length is significantly confined (P<0.001)” value ([1]; in vivo) was 25 µg/mL. For the same compound, the “concentration at which nematode's spawning rate is significantly confined (P<0.001)” value [2] was 5 µg/mL, the spawning rate [2] was 49.41% and the “relative fluorescence intensity ratio (ROS)” value [3] was 136.92% and 149.43%. The “body length ratio of Daf-16 mutant strain compared with N2 wild type” value [4] was “higher body length ratio than the N2 wild type”, the “effect of Daf-2 gene silencing on developmental toxicity” value [5] was “does not slow down the developmental toxicity” and the “spawning rate of Daf-16 mutant strain compared with N2 wild-type” value [6] was “higher spawning rate than the N2 wild-type”. For the same compound, the “spawning rate of Daf-2 mutant strain compared with N2” value [7] was “no significant difference from N2”.

Source: patent US12099051B2 (priority 2022, dated 2024)
